Experimental data as given in PMC4234468 (PLoS ONE, 2014).

How the values were obtained:
[1] = test system: β2AR and IR receptor complexes; assay: BRET^2 saturation assay with agonist stimulation, β2AR and IR homo- and heteromers in HEK-293 cells; conditions: data not shown
[2] = test system: β2AR-RLuc; conditions: β2AR-RLuc fusion construct; ref Vrecl et al. [47]; cited from earlier work
[3] = target: T1, HA-β2AR (Homo sapiens, UniProt P07550); assay: HA-β2AR internalization quantified by ELISA in HEK-293 cells; type: cell-based
T1 construct: host or cells: HEK-293
Procedure: ELISA assays for the measurement of surface-expressed HA-β2AR and quantification of receptor internalization were performed as described previously. Briefly, HEK-293 cells were transiently transfected with either β2AR-RLuc8 alone or β2AR-RLuc8 and IR-GFP^2. One microgram of each receptor was used, and the total amount of cDNA used for transfection was kept uniform by adding empty pcDNA3.1 vector. […] After 48 h, cells were first subjected to a 2-h starvation period, and then were treated as required in HEPES-modified DMEM with 0.1% BSA for 30 min at 37°C before fixing with 4% paraformaldehyde for 20 min at 4°C. Cells were then washed 3 times in PBS and blocked (PBS containing 1% BSA) for 60 min at room temperature. Cells were kept at room temperature for all of the subsequent steps. First, cells were incubated for 2 h with anti-HA antibody at a 1∶600 dilution. After 3 washes, cells were incubated with anti-rat horseradish peroxidase-conjugated antibody at a 1∶1000 dilution. After extensive washing, the reaction was developed using the 3, 3′, 5, 5′-tetra-methylbenzidine (TMB) liquid substrate system. […] The absorbances were measured at 450 nm using the microplate reader Rosys Anthos 2010 (Anthos Labtec Instruments, Wals, Austria). […]
[…]. Data are expressed as the means ± S.E. from three independent experiments performed in triplicate. […]

[4] = test system: β2AR in epidermoid carcinoma A431 cells; parameters: method as in PMID 14709719; conditions: cited from earlier work
[5] = target: T1, HA-β2AR; assay: whole-cell radioligand binding assay, [125I]-iodopindolol displacement, HA-β2AR; conditions: HEK-293 cells expressing HA-β2AR alone or with IR
Procedure: To establish a relationship between the luminescence/fluorescence signals generated by RLuc8 and GFP^2-tagged β2ARs and cell-surface receptor number, radioligand binding assays were carried out on whole cells as previously described [47]. […] An aliquot of cells (∼5×10^5) from each transfection was also transferred into a 60-mm dish for total luminescence/fluorescence measurements as described above. […] Determination of the radioactivity levels was performed in triplicate. Binding parameters were determined from displacement curves generated by a sigmoidal dose-response curve fit (GraphPad Prism 5.0). Receptor density (Bmax), expressed as the receptor number per cell, was calculated as previously described by Ramsay et al. [48]. Whole-cell radioligand binding assays were also performed with cells expressing β2AR alone or in combination with IR.

CC(C)NCC(O)c1ccc(O)c(O)c1 (stereo not shown) [isoproterenol, reference compound]
change in the BRET^2 signal on agonist stimulation [1]: did not promote any detectable change

CC(C)NCC(O)COc1cccc2[nH]ccc12 (stereo not shown) [pindolol]
IC50 [2]: 940 ± 60 pM

insulin
amount of surface-expressed β2AR lost to internalization in response to insulin [3]: ~15% | β2AR internalization (ELISA, Figure S1) ([3]; insulin 0.1 µM, 30 min, 37°C): did not induce marked β2AR internalization | amount of surface-expressed β2AR lost to internalization in response to insulin [4]: ~30% | competition for binding against [125I]-iodopindolol [5]: neither competed for binding | change in the BRET^2 signal on agonist stimulation [1]: did not promote any detectable change
